# Assay results: US20230348852A1, “METHODS AND COMPOSITIONS FOR OCULAR CELL THERAPY” (NOVARTIS AG, priority 2020, published 2023)
# Tests used:
# human limbal stem cells = experiment: Human limbal stem cell population expansion and measurement (expansion factor, p63alpha-positive cells); assay type: cell-based; details: 10 micromolar in XVIVO15 medium, two passages; for Expansion factor: ratio of expanded population to seeded cells; for Percentage of p63a-positive cells: share of Sytox Orange-positive nuclei expressing p63alpha
# Description: Cells were cultured at 37° C. in 5% CO2.
# For each compound, two sets of cultures were generated. A first set of cultures was fixed in 4% PFA for 20 minutes at room temperature after cells isolated from the cornea had attached to the cell culture dish (typically 24 h after cell plating). A second set of cultures was fixed in 4% PFA for 20 minutes at room temperature after being cultured for two passages. Cells were passaged when they reached 90-100% confluence.
# In order to observe that the expanded cell population expressed p63alpha, this was measured by immunohistochemistry as follows. The fixed cell cultures were permeabilized and blocked in a blocking solution of 0.3% Triton X-100 (Sigma-Aldrich) and 3% donkey serum in PBS for 30 minutes. Cells were then labeled with primary antibody in the blocking solution for 12 hours at 4° C. Primary antibody used was p63alpha from Cell Signalling. Samples were washed in PBS three times and donkey-raised secondary antibody Alexa Fluor 488 (Molecular Probes) at 1:500 dilution were applied for 30 minutes at room temperature. Cell nuclei were then labeled in a solution of 0.5 micromolar of Sytox Orange (ThermoFisher) in PBS for 5 minutes at room temperature.
# To evaluate the percentage of p63alpha-positive cells, the number of cells labeled by the anti-p63alpha antibody was counted and the total number of cells was determined by counting the number of nuclei stained by Sytox Orange. The proportion of p63alpha-positive cells was then determined by calculating the percentage of Sytox-orange-positive nuclei that also expressed p63alpha.
# To evaluate cell expansion ratios, nuclei were counted using a Zeiss LSM 880 confocal microscope. The expansion factor was then determined by calculating the ratio of the expanded population of cells to population of seeded cells.
# B2M = experiment: sgRNA screening for B2M knockout in LSCs (nucleofection, FACS); assay type: cell-based, human; details: Cas9 protein SEQ ID NO: 106, LSCs at passage 3, FACS after around 3 days
# Description: Cells were cultured under these conditions for 24-48 hours at 37° C. in 5% CO2.
# LSCs were nuclofected with selected gRNAs (Table 6) followed by FACS analysis / MACS separation.
# After scraping the cells, the reaction was stopped by using cell culture medium containing 10% Serum and transferred to a falcon tube. After counting cells using Vi-cell 300′000 cells were prepared per reaction by transferring 300′000 cells in single tubes and centrifuged at 1000 rpm for 5 min. The supernatant was aspirated using manually pipetting to avoid cell loss and the cells were resuspended in the Stem cell nucleofector solution II (Lonza, Cat #VPH-5022). Resuspend cells in nucleofector solution immediately before adding the Cas9 RNP:sgRNA mixture. To obtain the nucleofection mixture, 5 µg high concentrated (≥5 µg/µl) Cas9 protein of SEQ ID NO: 106 (volume = 0.78 µl) was mixed with 19.5 µg sgRNA of Table 6 (volume = 12.2 µl) and incubated for 20 min at room temperature. […] The Cas9 protein-guideRNA complex was added to the cell suspension and transferred to the electroporation cuvette immediately. Cells were transfected using the nucelofector device (Lonza, Amaxa Nucleofector II) and program A023. After nucleofection cells were transferred from cuvette to one well of a 24 well synthemax coated plate containing pre-warmed LSC medium including 3 µM LATS compound and 10 µM Rock inhibitor Y-27632 (Nature 1997, vol. 389, pp. 990-994). Incubate LSCs in a 5% CO2 incubator for around 3 days until cells are 90% confluent.
# LSCs were treated with TryLE®Express Enzym (ThermoFisher, Cat #12605010) for 15 minutes in 5% CO2 at 37° C. After scraping the cells, the reaction was stopped by using cell culture medium containing 10% Serum and transferred to a falcon tube for a centrifugation step (1000 rpm, 5 minutes). After aspirating the medium cells were resuspended in 200 µl FACS buffer (PBS/10%FBS).
# (§1) To analyze the expression of B2M and HLA-ABC, 5 µl APC mouse anti-human β2-microglobulin antibody (Biolegend, Cat#316312) and 20 µl PE mouse anti-human HLA-ABC antibody (BD Bioscience, Cat # 560168) were added to the cell suspension and incubated for 30 minutes on ice.
# Cells were washed 3 times after antibody labelling with FACS buffer and resuspended in 200 µl in FACS buffer (depending on the cell number).
# FACS data were analyzed using BD FACSDiva software and FlowJo software.
# human B2M = experiment: CRISPR/Cas9-mediated deletion of B2M in HEK293 (lipofection, FACS); assay type: cell-based; details: lipofection of tracrRNA, gRNA and Cas9 mRNA; FACS after 72 h
# Description: One day before transfection, 500′000 HEK293cells (ATCC, Manassas, VA) were plated in a 35 mm dish and grown in DMEM/10%FBS. The following day, cells were transfected with a mixture of tracrRNA-gRNA-Cas9 mRNA. A stock of 10 micromolar was prepared resuspending 20 nanomoles of gRNA and 20 nanomoles tracrRNA in 2000 microlitre 10 millimolar Tris buffer pH7.4 each.
# The mixture was added drop wise to the culture dish in 2.5 ml DMEM/10%FBS medium. The transfection reagent alone represented the transfection negative control.
# After 6 h incubation in 5% CO2 at 37° C. medium was replaced with fresh DMEM/10%FBS medium. After 72 h in a 5% CO2 incubator cells were prepared for FACS analysis. FACS analysis: HEK293 cells were treated with Accutase (ThermoFisher, Cat # A1110501) for 20 minutes in 5% CO2 at 37° C. The reaction was stopped by using cell culture medium containing 10% Serum and transferred to a falcon tube for a centrifugation step (1000 rpm, 5 minutes). After aspirating the medium cells were resuspended in 200 microlitre FACS buffer (PBS/10%FBS).
# as §1, with “microlitre” for “µl”, “Cat #316312)” for “Cat#316312)”, “ice. Cells were washed 3 times after antibody labelling with FACS buffer and resuspended in 500 microlitre in FACS buffer.” for “ice.”
# Each sample was transferred to one well of a round bottom 96 well plate and analyzed on a BD LSRFortessa X-20 device. FACS data were analyzed using BD FACSDiva software.
Molecule,Expansion factor (human limbal stem cells),Percentage of p63a-positive cells (human limbal stem cells),B2M knockout efficiency in LSCs after nucleofection (B2M),B2M knockout efficiency in HEK293 (human B2M)
"CCCNc1nc(-c2ccncc2)nc2cnccc12 [N-propyl-2-(pyridin-4-yl)pyrido[3,4-d]pyrimidin-4-amine]",1423,93%,,
CC1(Nc2cc(-c3ccncc3)cc3cnccc23)CC1 [N-(1-methylcyclopropyl)-7-(pyridin-4-yl)isoquinolin-5-amine],681,80%,,
"c1cc(-c2nc(NC3CCCC3)c3ccncc3n2)ccn1 [N-cyclopentyl-2-(pyridin-4-yl)pyrido[3,4-d]pyrimidin-4-amine]",1048,87%,,
"FC(F)(F)C1(Nc2nc(-c3ccncc3)cc3cnccc23)CC1 [3-(pyridin-4-yl)-N-(1-(trifluoromethyl)cyclopropyl)-2,6-naphthyridin-1-amine]",1241,95%,,
"FC(F)(F)C1CN(c2nc(-c3ccncc3)nc3cnccc23)CCN1 (stereo not drawn) [2-(pyridin-4-yl)-4-(3-(trifluoromethyl)piperazin-1-yl)pyrido[3,4-d]pyrimidine]",1051,90%,,
"CC(C)Nc1nc(-c2ccncc2)nc2cnccc12 [N-(propan-2-yl)-2-(pyridin-4-yl)pyrido[3,4-d]pyrimidin-4-amine]",1275,93%,,
"CC(C)(Nc1nc(-c2ccncc2Cl)nc2cnccc12)C(F)(F)F [2-(3-chloropyridin-4-yl)-N-(1,1,1-trifluoro-2-methylpropan-2-yl)pyrido[3,4-d]pyrimidin-4-amine]",961,87%,,
"O[C@H]1CCC[C@@H]1Nc1nc(-c2ccncc2)nc2cnccc12 [(1S,2S)-2-{[2-(pyridin-4-yl)pyrido[3,4-d]pyrimidin-4-yl]amino}cyclopentan-1-ol]",39,6%,,
"FC(F)(F)C1(Nc2nc(-c3ccncc3)nc3cnccc23)CCC1 [2-(pyridin-4-yl)-N-[1-(trifluoromethyl)cyclobutyl]pyrido[3,4-d]pyrimidin-4-amine]",1712,95%,,
"CCCNc1nc(-c2c[nH]nc2C(F)(F)F)nc2cnccc12 [N-propyl-2-(3-(trifluoromethyl)-1H-pyrazol-4-yl)pyrido[3,4-d]pyrimidin-4-amine]",991,86%,,
"CC1CCCC1Nc1nc(-c2ccncc2)nc2cnccc12 (stereo not drawn) [N-(2-methylcyclopentyl)-2-(pyridin-4-yl)pyrido[3,4-d]pyrimidin-4-amine]",976,86%,,
"CC(C)(C)Nc1cc(-c2ccncc2)nc2cnccc12 [Example 2, N-(tert-butyl)-2-(pyridin-4-yl)-1,7-naphthyridin-4-amine]",1717,93%,,
"CC(C)(CO)Nc1nc(-c2ccncc2)nc2cnccc12 [2-methyl-2-{[2-(pyridin-4-yl)pyrido[3,4-d]pyrimidin-4-yl]amino}propan-1-ol]",1160,89%,,
"10-HEYJA000007: gRNA targeting human B2M; targeting domain SEQ ID NO: 117; sgRNA SEQ ID NO: 168 (nucleic acid, listed as RNA, chemistry not given here) guide: AGUCACAUGGUUCACACGGCGUUUUAGAGCUAGAAAUAGCAAGUUAAAAUAAGGCUAGUCCGUUAUCAACUUGAAAAAGUGGCACCGAGUCGGUGCUUUU",,,1%,13%
"2-CR004366: gRNA targeting human B2M; targeting domain SEQ ID NO: 109; sgRNA SEQ ID NO: 160; from Dharmacon (nucleic acid, listed as RNA, chemistry not given here, gRNA targeting human B2M; from Dharmacon) guide: CGUGAGUAAACCUGAAUCUUGUUUUAGAGCUAGAAAUAGCAAGUUAAAAUAAGGCUAGUCCGUUAUCAACUUGAAAAAGUGGCACCGAGUCGGUGCUUUU",,,2%,33%
"CR006979: gRNA targeting human B2M; targeting domain SEQ ID NO: 140; sgRNA SEQ ID NO: 177 (nucleic acid, listed as RNA, chemistry not given here) guide: UCCUGAAUUGCUAUGUGUCUGUUUUAGAGCUAGAAAUAGCAAGUUAAAAUAAGGCUAGUCCGUUAUCAACUUGAAAAAGUGGCACCGAGUCGGUGCUUUU",,,2%,
"7-HEYJA000003: gRNA targeting human B2M; targeting domain SEQ ID NO: 114; sgRNA SEQ ID NO: 165 (nucleic acid, listed as RNA, chemistry not given here) guide: CUCGCGCUACUCUCUCUUUCGUUUUAGAGCUAGAAAUAGCAAGUUAAAAUAAGGCUAGUCCGUUAUCAACUUGAAAAAGUGGCACCGAGUCGGUGCUUUU",,,8%,37%
"11-HEYJA000008: gRNA targeting human B2M; targeting domain SEQ ID NO: 118; sgRNA SEQ ID NO: 169 (nucleic acid, listed as RNA, chemistry not given here) guide: CCACCUCUUGAUGGGGCUAGGUUUUAGAGCUAGAAAUAGCAAGUUAAAAUAAGGCUAGUCCGUUAUCAACUUGAAAAAGUGGCACCGAGUCGGUGCUUUU",,,1%,3%
"3-CR004366: gRNA targeting human B2M; targeting domain SEQ ID NO: 110; sgRNA SEQ ID NO: 161; from Dharmacon (nucleic acid, listed as RNA, chemistry not given here, gRNA targeting human B2M; from Dharmacon) guide: AAGUCAACUUCAAUGUCGGAGUUUUAGAGCUAGAAAUAGCAAGUUAAAAUAAGGCUAGUCCGUUAUCAACUUGAAAAAGUGGCACCGAGUCGGUGCUUUU",,,2%,12%
"5-CR004366: gRNA targeting human B2M; targeting domain SEQ ID NO: 112; sgRNA SEQ ID NO: 163; from Dharmacon (nucleic acid, listed as RNA, chemistry not given here, gRNA targeting human B2M; from Dharmacon) guide: CUGAAUCUUUGGAGUACCUGGUUUUAGAGCUAGAAAUAGCAAGUUAAAAUAAGGCUAGUCCGUUAUCAACUUGAAAAAGUGGCACCGAGUCGGUGCUUUU",,,2%,33%
